Source: US6103729A, “Cathecol derivatives and a method for the preparation thereof and a pharmaceutical composition containing the same” (Cheil Jedang Corp., priority 1996, dated 2000)

Key:
Phosphodiesterase III = experiment: Inhibition of phosphodiesterase activity ([3H]cAMP hydrolysis); format: biochemical; details: PDE partially purified from human U937 cells, 1.0 μM cAMP, 30° C., 20 minutes; test concentration not given
Description: (§1) II. Inhibition of Phosphodiesterase IV Activity
(§2) Phosphodiesterase I, II, III, IV or V partially purified from human U937 cells, test compound of Example 1, 2 or 3 and 1.0 μM cAMP including μM [^3 H] cAMP were incubated at 30° C. for 20 minutes. The PDE reaction to convert cAMP into AMP was completed by boiling the reaction solution for 2 minutes. AMP was converted into adenosine by adding snake venom nucleotidase and incubating the reaction solution for 10 minutes. While unhydrolyzed cAMPs were bonded to AG1-X2 resin, the aqueous remaining [^3 H] adenosine was quantified by scintillation counting. The results are shown in Table II below, in which the values indicate inhibition(%) of each PDE by each test compound.

Phosphodiesterase V = biological target: T1, Phosphodiesterase V (Homo sapiens, UniProt O76074); experiment: as above; format: biochemical; details: PDE partially purified from human U937 cells, 1.0 μM cAMP, 30° C., 20 minutes; test concentration not given
T1 construct: printed source human U937 cells (possibly human platelets in practice)
Description: as §1, §2

Phosphodiesterase II = biological target: T2, Phosphodiesterase II (Homo sapiens, UniProt O00408); experiment: as above; format: biochemical; details: PDE partially purified from human U937 cells, 1.0 μM cAMP, 30° C., 20 minutes; test concentration not given
T2 construct: partially purified from human U937 cells; endogenous in cells; host or cells: U937 cells (partially purified)
Description: as §1, §2

Phosphodiesterase IV = experiment: as above; format: biochemical; details: PDE partially purified from human U937 cells, 1.0 μM cAMP, 30° C., 20 minutes; test concentration not given
Description: as §1, §2

Phosphodiesterase I = experiment: as above; format: biochemical; details: PDE partially purified from human U937 cells, 1.0 μM cAMP, 30° C., 20 minutes; test concentration not given
Description: as §1, §2

Wistar rats = experiment: Passive Cutanious Anaphylaxis (PCA); format: in vivo, rat; details: oral, female Wistar rats, evans blue read at 620 nm
Description: I. Passive Cutanious Anaphylaxis (PCA)
Hair on the back of each of the three 5 weeks old female Wistar rats were cut by clippers. Prepared mouse antiserum was diluted with 50×physiological saline solution. 0.05 ml of diluted antiserum solution was subcutaneously injected into two hair-cut sites on the back of each rat. After 3 hours, the test compounds were orally administered to the rats. After 30 minutes, 0.1% ovalbumin as antigen was mixed with 1% evans blue in the equivalent volumes and 0.1 ml of the mixture was injected in a peripheral vein of the tail of each rat. After 30 minutes, rats were sacrificed by bleeding from the abdominal arteries and their skins were stripped from the subcutaneous injection spots in uniform sizes. After immersing the stripped skins in 1.0 ml of 1.2 N KOH in 9 ml test tube and stopping the tube, a shaking incubation was performed at 37° C. for 24 hours. Then, after the mixtured solution of acetone and 0.6 N phosphoric acid (13:5) was added, the test tube was shaking-incubated for 1 hour and centrifuged to 1,700 g at 20° C. for 10 minutes. After insoluble lipids were removed from the top of the supernatant, the supernatant was measured at 620 nm. IgE was quantified by diluting the mixtured acetone-phosphoric aicd solution and drawing evans blue assay lines. The results are shown in Table I below, in which the amounts of IgE were expressed as μg/ml.

T2 sequence (O00408 whole entry): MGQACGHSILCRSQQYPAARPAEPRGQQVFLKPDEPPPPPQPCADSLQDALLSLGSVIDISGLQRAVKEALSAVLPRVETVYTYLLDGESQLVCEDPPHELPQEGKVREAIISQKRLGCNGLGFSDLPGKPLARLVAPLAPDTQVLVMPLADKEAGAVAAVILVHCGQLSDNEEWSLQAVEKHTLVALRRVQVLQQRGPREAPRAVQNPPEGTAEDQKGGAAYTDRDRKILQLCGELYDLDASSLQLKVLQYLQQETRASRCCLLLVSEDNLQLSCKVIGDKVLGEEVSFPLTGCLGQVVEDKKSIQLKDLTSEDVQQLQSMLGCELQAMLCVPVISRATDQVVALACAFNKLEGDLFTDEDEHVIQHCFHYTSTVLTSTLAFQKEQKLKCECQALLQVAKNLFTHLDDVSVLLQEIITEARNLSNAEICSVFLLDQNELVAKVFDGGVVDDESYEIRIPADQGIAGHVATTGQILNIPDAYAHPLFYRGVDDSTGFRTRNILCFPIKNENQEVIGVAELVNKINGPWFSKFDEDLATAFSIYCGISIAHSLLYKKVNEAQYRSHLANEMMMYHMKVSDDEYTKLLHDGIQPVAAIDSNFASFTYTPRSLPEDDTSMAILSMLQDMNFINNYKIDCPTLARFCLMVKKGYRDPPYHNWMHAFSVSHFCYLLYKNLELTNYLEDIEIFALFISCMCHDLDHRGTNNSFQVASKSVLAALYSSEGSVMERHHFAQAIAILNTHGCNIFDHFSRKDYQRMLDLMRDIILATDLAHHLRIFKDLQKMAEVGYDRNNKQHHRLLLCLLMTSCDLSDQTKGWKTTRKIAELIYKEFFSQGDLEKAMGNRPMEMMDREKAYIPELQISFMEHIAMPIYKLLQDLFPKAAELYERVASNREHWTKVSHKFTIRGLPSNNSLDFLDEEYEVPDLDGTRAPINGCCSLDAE

Compound	inhibition(%) of Phosphodiesterase Type III (Phosphodiesterase III)	inhibition(%) of Phosphodiesterase Type V (Phosphodiesterase V)	inhibition(%) of Phosphodiesterase Type II (Phosphodiesterase II)	inhibition(%) of Phosphodiesterase Type IV (Phosphodiesterase IV)	inhibition(%) of Phosphodiesterase Type I (Phosphodiesterase I)	amounts of IgE (Wistar rats; dose 0.1 mg/rat)	amounts of IgE (Wistar rats; dose 2.0 mg/rat)
COc1ccc(C(=O)Nc2n[nH]cc2C(N)=O)cc1OC1CCCC1 [Example 1, 3-(3-cyclopentyloxy-4-methoxyphenylcarboxylamido)-1H-4-pyrazolecarboxylamide]	68%	89%	65%	90%	58%	4.578 µg/mL	4.099 µg/mL
COc1ccc(C(=O)Nc2ccsc2C(N)=O)cc1OC1CCCC1 [Example 3]	74%	69%	68%	90%	67%		
COc1ccc(C(=O)Nc2nc[nH]c2C(N)=O)cc1OC1CCCC1 [Example 2]	67%	61%	60%	80%	68%	3.381 µg/mL	2.694 µg/mL
